# Measurements published in patent US5075296A, “Azacyclooctadiene compound and pharmaceutical use” (Eisai Co., Ltd., priority 1989, dated 1991).
# How the values were obtained:
# [1] = tested on: KB cells; assay: antitumor activity in vitro with cultured KB cells (growth inhibition, Coulter counter); assay type: cell-based, human; details: four days, 37° C., MEM - 10% calf serum; for IC50: Homo sapiens, KB, 96 h, read-out: ED50 (concentration at which the growth inhibition was substantially 50% based on the control); for ED50 (concentration at which the growth inhibition was substantially 50% based on the control): 5760 min
# Description: The antitumor activity of the compounds of the present invention was determined in vitro with cultured KB cells.
# The experiment was conducted by using KB derived from a human epidermoid carcinoma of the mouth and Eagle's minimal essential medium (MEM) - 10% calf serum at 37° C. in a carbon dioxide incubator (5% CO2).
# KB cells were diluted at a dilution rate of 1×10^4 /ml medium. 2 ml of the sample thus formed was placed in a 30-mm plastic dish so that the final concentration of the compounds of the present invention would be 100, 30, 10, 3 or 1 μg/ml. After four days, the cells were peeled from the dish surface with trypsin and the number of the cells was counted with a Coulter counter.
# The criterion according to NCI (U.S.A.) was employed to determine the concentration (ED50) at which the growth inhibition was substantially 50% based on the control.
# [2] = tested on: S-180 salcoma cells; assay: antitumor activity in ICR mice inoculated with S-180 salcoma cells (increase in life-span); assay type: in vivo, mouse (female ICR mice); details: intra-peritoneal, once a day Day 1 to 5; for Number of surviving mice: observation period 52 days, saline control 0/12, DMSO 0/7; for Prolongation extent of life: saline control 0, DMSO -11; for Average days of the prolongation of life: saline control 13.3 ± 3.7, DMSO 12.0 ± 3.0
# Description: Female ICR mice being 6 weeks old were inoculated abdominally with 0.2 ml of a sample of cell suspension in PBS containing 5×10^5 S-180 salcoma cells, on Day 0. Once a day for 5 days (Day 1 to 5) from the next day, they were inoculated abdominally with the above shown compounds of A-IV-b, B-VI-6 and D-I-a, respectively, dispersed in 6 wt. % dimethylsulfoxide solution, with intra-peritoneal injection of 25 or 50 mg/kg. A saline and a solvent were used for reference control. 12 to 7 mice were used in the saline control and the drug test, respectively. Antitumor activity was determined by the mean survival time (prolongation of life) of the test group (T) with that of the control group (C) and is shown in terms of an increase in life-span (prolongation extent of life), that is, ((T/C)×100%). The observation period was 52 days and survivors were excluded from calculation.
smiles,measurement,setting,value
COc1cc(CN2C(=O)OCC2Cc2ccc3c(c2)OCO3)cc(OC)c1OC (stereo not shown) [A-III],IC50,[1],35 µg/mL
COc1cc2c(c(OC)c1OC)-c1cc3c(cc1CC1COC(=O)N1C2)OCO3 (stereo not shown) [A-IV-b],ED50 (concentration at which the growth inhibition was substantially 50% based on the control),[1],< 0.3 µg/mL
same,Number of surviving mice,[2]; 25 mg/kg,0/7
same,Prolongation extent of life,[2]; 25 mg/kg,-4%
same,Average days of the prolongation of life,[2]; 25 mg/kg,12.9 ± 2.3 days
same,Number of surviving mice,[2]; 50 mg/kg,0/7
same,Prolongation extent of life,[2]; 50 mg/kg,40%
same,Average days of the prolongation of life,[2]; 50 mg/kg,19.0 ± 5.5 days
COc1c(O)cc2c(c1OC)-c1cc3c(cc1CC1COC(=O)N1C2)OCO3 (stereo not shown) [A-VIII-a],IC50,[1],17 µg/mL
COc1cc(C2c3cc4c(cc3C(N=[N+]=[N-])C3COC(=O)N23)OCO4)cc(OC)c1OC [D-X-a],ED50 (concentration at which the growth inhibition was substantially 50% based on the control),[1],0.68 µg/mL
COc1cc2c(c(OC)c1OC)-c1cc3c(cc1CC(COC(C)=O)N(C)C2)OCO3 (stereo not shown) [A-VI-a],IC50,[1],1.65 µg/mL
COc1cc(CN2C(=O)NCC2Cc2ccc3c(c2)OCO3)cc(OC)c1OC (stereo not shown) [B-V],IC50,[1],47 µg/mL
COc1cc(C2c3cc4c(cc3C(N)C3COC(=O)N23)OCO4)cc(OC)c1OC [D-XI-b],IC50,[1],< 0.3 µg/mL
COc1cc2c(c(OC)c1OC)-c1cc3c(cc1CC(CO)N(C)C2)OCO3 (stereo not shown) [A-V-b],ED50 (concentration at which the growth inhibition was substantially 50% based on the control),[1],1.1 µg/mL
COc1cc(C2c3cc4c(cc3C(N=[N+]=[N-])C3COC(=O)N23)OCO4)cc(OC)c1OC [D-X-b],ED50 (concentration at which the growth inhibition was substantially 50% based on the control),[1],< 0.3 µg/mL
COc1cc2c(c(OC)c1OC)-c1cc3c(cc1CC1COC(=O)N1C2)OCO3 (stereo not shown) [A-IV-a],ED50 (concentration at which the growth inhibition was substantially 50% based on the control),[1],47.0 µg/mL
COc1cc2c(c(OC)c1OC)-c1cc3c(cc1CC1CN(CC(=O)O)C(=O)N1C2)OCO3 (stereo not shown) [B-VIII-b],IC50,[1],5.4 µg/mL
COc1cc2c(c(OC)c1OC)-c1cc3c(cc1CC(CO)N(C)C2)OCO3 (stereo not shown) [A-V-a],IC50,[1],1.5 µg/mL
COc1cc2c(c(OC)c1O)-c1cc3c(cc1CC1COC(=O)N1C2)OCO3 (stereo not shown) [A-IX-a],IC50,[1],50 µg/mL
COc1cc2c(c(OC)c1OC)-c1cc3c(cc1CC1CNC(=O)N1C2)OCO3 (stereo not shown) [B-VI-b],IC50,[1],< 0.3 µg/mL
same,Number of surviving mice,[2]; 25 mg/kg,2/7
same,Prolongation extent of life,[2]; 25 mg/kg,50%
same,Average days of the prolongation of life,[2]; 25 mg/kg,20.2 ± 4.2 days
same,Number of surviving mice,[2]; 50 mg/kg,0/7
same,Prolongation extent of life,[2]; 50 mg/kg,120%
same,Average days of the prolongation of life,[2]; 50 mg/kg,29.7 ± 3.9 days
COc1cc2c(c(OC)c1OC)-c1cc3c(cc1CC(CO)N(C=O)C2)OCO3 (stereo not shown) [A-VII-a],IC50,[1],< 0.3 µg/mL
COc1cc2c(c(OC)c1OC)-c1cc3c(cc1CC1CN(CC(=O)OC(C)(C)C)C(=O)N1C2)OCO3 (stereo not shown) [B-VII-b],IC50,[1],1.7 µg/mL
COc1cc(C2c3cc4c(cc3CC3COC(=O)N32)OCO4)cc(OC)c1OC [D-I-a],Number of surviving mice,[2]; 25 mg/kg,0/7
same,Prolongation extent of life,[2]; 25 mg/kg,62%
same,Average days of the prolongation of life,[2]; 25 mg/kg,21.9 ± 4.0 days
same,Number of surviving mice,[2]; 50 mg/kg,0/7
same,Prolongation extent of life,[2]; 50 mg/kg,48%
same,Average days of the prolongation of life,[2]; 50 mg/kg,20.0 ± 5.6 days
